One experiment deals with HepG2 WT cells. As to the kind of experiment: Colocalization of EGFP-ATP7B-WT with TGN, lysosome (LAMP1) and LC3B markers. Type of experiment: cell-based, human. The settings on record: 200 µM BCS, 24 h. As to the method:
For the detection of the effect of copper on autophagosome-lysosome fusion, 50,000 cells of each HepG2 WT and HepG2 ATP7B^−/− were grown on laminin-coated coverslips for 24 h, transduced with BacMam-GFP-RFP-LC3B overnight according to the manufacturer’s recommendations. The cells were then treated with CuSO4 at a concentration range from 100 µM to 800 µM for 24 h, fixed with 4% paraformaldehyde for 15 min and finally stained with 250 ng/mL DAPI (Thermo Fisher scientific, Molecular Probes, D1306) for 5 min. The coverslips were fixed on a glass slide using Mowiol 4–88 (Sigma Aldrich, 81381). The fluorescence cell imaging was acquired using a confocal Zeiss LSM 780 microscope with a 63 × 1.40 Oil DIC M27. […] Red and yellow puncta count per cell was done using the particle analysis in image J. For protein ATP7B trafficking analysis, 50,000 cells of HepG2 WT and HepG2 ATP7B^−/− were cultured in a 500 µL cell culture medium on a laminin-coated coverslip for 24 h, then transfected with EGFP-ATP7B. After 6 h post transfection, cells were transduced with BacMam-RFP-Golgi or the BacMam-RFP-Lysosome overnight, then treated with various concentrations of CuSO4 or 200 µM of bathocuproine disulfonate (BCS) for 24 h or EBSS for 2 h, respectively. To detect LC3B or endogenous ATP7B, the fixed cells were incubated with anti-LC3B or anti-ATP7B antibodies at 4 °C overnight followed by secondary antibody incubation, Alexa Fluor 568 goat anti-rabbit, at temperature for 1 h in the dark. Pearson’s correlation coefficient was analyzed per cell using the colocalization threshold of ImageJ Fiji.

Experiment [1] addresses T1, LC3B (Homo sapiens, UniProt Q9GZQ8).
T1 construct: His6 (N, cleaved yes); MBP (N, cleaved yes); made in house; host or cells: E. coli BL21-codonplus (DE3)-RIL
As to the kind of experiment: Fluorescence polarization binding of CF-labelled LIR peptides to purified LC3B. The settings on record: CF-labelled peptide 2.5 µM (25 µL) + LC3B 0.2–330 µM (25 µL), HEPES buffer 50 mM pH 7.2, 50 mM NaCl, 2 mM DTE, one site-specific binding fit, three independent replications, read-out: Kd (dissociation constant) for LC3B. The method, then:
Binding experiments were done in a black 384-microwell plate. […] Each CF-labelled peptide in a volume of 25 µL at a concentration of 2.5 µM was combined with 25 µL of LC3B at a concentration range from 0.2–330 µM. The fluorescent polarization was measured with the excitation and emission wavelengths of […], respectively. The obtained polarization data were corrected by subtraction of the peptide alone (blank). The dissociation constant (Kd) was quantified using a nonlinear curve fitting the site-specific binding on GraphPad Prism 5.0 for Windows (GraphPad Software, La Jolla, CA, USA). Experiments were performed in three independent replications.
Background: Fluorescence polarisation rises when a labelled molecule tumbles more slowly, as on binding a larger partner.

In experiment [2] the target is T1, LC3B. As to the kind of experiment: Pull-down with resin-bound GST-LC3B as bait from transfected HEK293H cell lysate. Type of experiment: binding. The note with it: 500 µg HEK293H lysate, western blot, repeated two times. The method, then: GST tagged LC3B was used as a bait to trap the full-length ATP7B from a lysate obtained from ATP7B transfected human embryonic kidney 293 H cell line (HEK293H) cells. To this end, 100,000 cells of HEK293H were cultured in 1 mL of DMEM media (Thermo Fisher Scientific, 31966-047) plus 10% fetal bovine serum (FBS) (Fisher Scientific, 10309433) and 1% Penicillin-Streptomycin (P/S) (Thermo Fisher Scientific, 15140122). Once the cells reached 80% confluence, cells were transfected with pIRES-GFP carrying full-length ATP7B (NM_000053.4) or its W1452A/L1455A mutant using Lipofectamine LTX and plus reagent (Invitrogen, 15338100). […] Blots were imaged on an Infrared fluorescence imaging system using Li-Cor 9120 Odyssey (LI-COR Biosciences, Bad Homburg, Germany). Protein band intensity quantification was done using ImageJ (National Institutes of Health, Bethesda, MD, USA).
(In general: In western blotting, separated proteins are transferred to a membrane and probed.)

Positions count from the first letter of the chain named. Names and notes keep the numbering of the source. Peptide text beside a SMILES is read from it. * marks the point of attachment. 5FAM = O=C1OC2(c3ccc(O)cc3Oc3cc(O)ccc32)c2ccc(C(=O)*)cc21

Regarding `Cc1cc(-c2ccc(S(=O)(=O)O)cc2)c2ccc3c(-c4ccc(S(=O)(=O)O)cc4)cc(C)nc3c2n1` [BCS, bathocuproine disulfonate], the “fold elevation of ATP7B fraction in the TGN vs basal medium condition” value with HepG2 WT cells is “about 12.6 fold”. Further, the “ATP7B fraction in the TGN” value in the experiment with HepG2 WT cells (from mean Pearson's correlation coefficient, 30 cells) came to 32.8%. The Kd is a measure of binding affinity in units of concentration. For `CSCC[C@H](NC(=O)c1ccc2c(c1)C(=O)OC21c2ccc(O)cc2Oc2cc(O)ccc21)C(=O)N[C@@H](CCCCN)C(=O)N[C@@H](CCCCN)C(=O)N[C@@H](CO)C(=O)N[C@@H](Cc1ccccc1)C(=O)N[C@@H](C)C(=O)N[C@@H](Cc1ccccc1)C(=O)N[C@@H](CC(=O)O)C(=O)N[C@@H](CC(N)=O)C(=O)N[C@H](C(=O)NCC(=O)N[C@@H](Cc1ccc(O)cc1)C(=O)N[C@@H](CCC(=O)O)C(=O)NCC(=O)NCC(=O)N[C@@H](CC(C)C)C(=O)N[C@@H](CC(=O)O)C(N)=O)C(C)C` [LIR1] (5FAM-MKKSFAFDNVGYEGGLD-NH2), at LC3B [1], the Kd is above 250 µM. For the molecule `CC(C)[C@H](NC(=O)[C@H](Cc1ccc(O)cc1)NC(=O)[C@H](CO)NC(=O)[C@@H](NC(=O)[C@H](CCC(N)=O)NC(=O)[C@H](CC(=O)O)NC(=O)[C@H](Cc1c[nH]c2ccccc12)NC(=O)[C@@H]1CCCN1C(=O)[C@@H](NC(=O)[C@H](C)NC(=O)[C@H](CCCNC(=N)N)NC(=O)[C@@H]1CCCN1C(=O)[C@H](CO)NC(=O)[C@H](CC(=O)O)NC(=O)c1ccc2c(c1)C(=O)OC21c2ccc(O)cc2Oc2cc(O)ccc21)[C@@H](C)O)C(C)C)C(=O)N[C@@H](CO)C(=O)N[C@@H](CCC(N)=O)C(N)=O` [LIR2] (5FAM-DSPRATPWDQVSYVSQ-NH2), the Kd at LC3B [1] is above 250 µM.

Turning to `CC(C)C[C@H](NC(=O)[C@H](C)NC(=O)[C@H](CC(C)C)NC(=O)[C@H](CO)NC(=O)[C@H](C)NC(=O)[C@H](CCCCN)NC(=O)[C@H](CC(=O)O)NC(=O)CNC(=O)[C@H](CC(=O)O)NC(=O)[C@H](CC(=O)O)NC(=O)[C@H](CC(=O)O)NC(=O)[C@H](C)NC(=O)c1ccc2c(c1)C(=O)OC21c2ccc(O)cc2Oc2cc(O)ccc21)C(=O)N[C@@H](CC(N)=O)C(=O)NCC(=O)N[C@@H](CCCNC(=N)N)C(=O)N[C@@H](CC(=O)O)C(N)=O` [LIR3^W1452A,L1455A] (5FAM-ADDDGDKASLALNGRD-NH2), at LC3B [1], the Kd was above 250 µM.

For the molecule `CC(C)C[C@H](NC(=O)[C@H](CO)NC(=O)[C@H](C)NC(=O)[C@H](CCCCN)NC(=O)[C@H](CC(=O)O)NC(=O)CNC(=O)[C@H](CC(=O)O)NC(=O)[C@H](CC(=O)O)NC(=O)[C@H](CC(=O)O)NC(=O)[C@H](C)NC(=O)c1ccc2c(c1)C(=O)OC21c2ccc(O)cc2Oc2cc(O)ccc21)C(=O)N[C@@H](CC(C)C)C(=O)N[C@@H](CC(C)C)C(=O)N[C@@H](CC(N)=O)C(=O)NCC(=O)N[C@@H](CCCNC(=N)N)C(=O)N[C@@H](CC(=O)O)C(N)=O` [LIR3^W1452A] (5FAM-ADDDGDKASLLLNGRD-NH2), the Kd at LC3B [1] was above 250 µM.

B1: wild-type ATP7B: full-length recombinant copper-transporting ATPase ATP7B from transfected HEK293H cell lysate (protein)
chain: MPEQERQITAREGASRKILSKLSLPTRAWEPAMKKSFAFDNVGYEGGLDGLGPSSQVATSTVRILGMTCQSCVKSIEDRISNLKGIISMKVSLEQGSATVKYVPSVVCLQQVCHQIGDMGFEASIAEGKAASWPSRSLPAQEAVVKLRVEGMTCQSCVSSIEGKVRKLQGVVRVKVSLSNQEAVITYQPYLIQPEDLRDHVNDMGFEAAIKSKVAPLSLGPIDIERLQSTNPKRPLSSANQNFNNSETLGHQGSHVVTLQLRIDGMHCKSCVLNIEENIGQLLGVQSIQVSLENKTAQVKYDPSCTSPVALQRAIEALPPGNFKVSLPDGAEGSGTDHRSSSSHSPGSPPRNQVQGTCSTTLIAIAGMTCASCVHSIEGMISQLEGVQQISVSLAEGTATVLYNPSVISPEELRAAIEDMGFEASVVSESCSTNPLGNHSAGNSMVQTTDGTPTSVQEVAPHTGRLPANHAPDILAKSPQSTRAVAPQKCFLQIKGMTCASCVSNIERNLQKEAGVLSVLVALMAGKAEIKYDPEVIQPLEIAQFIQDLGFEAAVMEDYAGSDGNIELTITGMTCASCVHNIESKLTRTNGITYASVALATSKALVKFDPEIIGPRDIIKIIEEIGFHASLAQRNPNAHHLDHKMEIKQWKKSFLCSLVFGIPVMALMIYMLIPSNEPHQSMVLDHNIIPGLSILNLIFFILCTFVQLLGGWYFYVQAYKSLRHRSANMDVLIVLATSIAYVYSLVILVVAVAEKAERSPVTFFDTPPMLFVFIALGRWLEHLAKSKTSEALAKLMSLQATEATVVTLGEDNLIIREEQVPMELVQRGDIVKVVPGGKFPVDGKVLEGNTMADESLITGEAMPVTKKPGSTVIAGSINAHGSVLIKATHVGNDTTLAQIVKLVEEAQMSKAPIQQLADRFSGYFVPFIIIMSTLTLVVWIVIGFIDFGVVQRYFPNPNKHISQTEVIIRFAFQTSITVLCIACPCSLGLATPTAVMVGTGVAAQNGILIKGGKPLEMAHKIKTVMFDKTGTITHGVPRVMRVLLLGDVATLPLRKVLAVVGTAEASSEHPLGVAVTKYCKEELGTETLGYCTDFQAVPGCGIGCKVSNVEGILAHSERPLSAPASHLNEAGSLPAEKDAVPQTFSVLIGNREWLRRNGLTISSDVSDAMTDHEMKGQTAILVAIDGVLCGMIAIADAVKQEAALAVHTLQSMGVDVVLITGDNRKTARAIATQVGINKVFAEVLPSHKVAKVQELQNKGKKVAMVGDGVNDSPALAQADMGVAIGTGTDVAIEAADVVLIRNDLLDVVASIHLSKRTVRRIRINLVLALIYNLVGIPIAAGVFMPIGIVLQPWMGSAAMAASSVSVVLSSLQLKCYKKPDLERYEAQAHGHMKPLTASQVSVHIGMDDRWRDSPRATPWDQVSYVSQVSLSSLTSDKPSRHSAAADDDGDKWSLLLNGRDEEQYI
As for B1, the “ATP7B in elution fraction of GST-LC3B pull-down” value in the experiment with LC3B [2] is given as “detected in the elution fraction”.

B2: ATP7B^W1452A/L1455A: full-length ATP7B variant W1452A/L1455A with mutated LIR3 motif (protein)
chain: B1 chain with W1452A, L1455A
For the molecule B2, in the experiment with LC3B [2], the “ATP7B in elution fraction of GST-LC3B pull-down” value was “largely reduced”.

These data come from article PMC8625360 (Cells, 2021).
